Results published in patent US10550110B2, “Tetrahydroquinoline sulfonamide derivatives as inverse agonists of retinoid-related orphan receptor gamma (ROR gamma (t))” (GALDERMA RESEARCH & DEVELOPMENT, priority 2014, dated 2020).
Like-named read-outs stand apart in the source and are kept apart here.

Columns and labels:
[1] = molecular target: T1, ROR gamma ligand-binding domain (LBD) (hRORg) (Homo sapiens, UniProt P51449); assay: GAL4-RORγ transactivation (luciferase reporter, HG5LN HeLa line); format: cell-based; details: HG5LN HeLa line with GAL4 DBD fused to ROR gamma LBD, 18 hours incubation
T1 construct: expressed in transfected cells; host or cells: HG5LN (HeLa line with GAL4-responsive luciferase reporter)
T1 sequence (P51449 269-508 limits assumed): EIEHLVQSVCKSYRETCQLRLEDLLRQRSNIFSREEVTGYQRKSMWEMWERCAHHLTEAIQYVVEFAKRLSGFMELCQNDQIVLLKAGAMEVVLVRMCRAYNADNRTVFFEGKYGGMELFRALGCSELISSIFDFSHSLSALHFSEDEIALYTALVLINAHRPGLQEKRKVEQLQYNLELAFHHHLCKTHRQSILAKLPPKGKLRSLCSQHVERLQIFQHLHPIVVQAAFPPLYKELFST
How it was run: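 HeLa HG5LN cells stably carrying a GAL4-responsive luciferase reporter and GAL4 DBD–RORγ LBD fusion; seeded 4 h, then compound 18 h at 37 °C, 5% CO2. Luminescence normalized between DMSO and saturating reference-inhibitor controls as % inhibition; IC50 from 4-parameter logistic fit.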

[2] = tested on: IL-17A secretion by CD4+ cells; assay: IL-17A secretion by CD4+ cells (HTRF); format: cell-based; details: human peripheral blood CD4+ cells activated with anti-CD3 and anti-CD28, 4 days incubation, IL-17A by HTRF, read-out: IC50 hCD4/IL17
Procedure: This model allows measurement of the effect of inhibitors on IL-17A secretion by CD4+ cells. The cells are frozen CD4+ cells (STEMCELL, #70026), isolated from peripheral human blood and activated with anti-CD3 and anti-CD28 antibodies. The amount of IL-17A secreted is measured by the TR-FRET (kit HTRF® Human Interleukin 17A (Cisbio, #64H17PEC)) technology.
The cells are rapidly thawed, resuspended in their culture medium (RPMI inactivated 10% FCS) supplemented with soluble anti-CD28 antibodies and seeded (100 000 cells/well) in 96-well plates precoated with anti-CD3 antibodies. The cells are then treated with the ranges of inhibitors to be tested (from 1000 nM to 0.05 nM, 0.1% DMSO). After 4 days of incubation, the HTRF signal is measured using a microplate reader (λexcitation=337 nm, λemission=620/665 nm). The ratios obtained (665/620) are normalized relative to the positive control (cells activated with anti-CD3 and anti-CD28, 0.1% DMSO). The IC50 values are calculated from a 4-parameter logistic model using the XLFit software (IDBS).

| Compound | IC50 [1] | IC50 ([2]; 96 h) | IC50 [2] |
| --- | --- | --- | --- |
| CCc1ccc(N(CC(C)C)S(=O)(=O)c2ccc3c(c2)C(O)CCN3CC2CCOCC2)cc1 (racemic) [Compound 2, 4-hydroxy-1-(tetrahydropyran-4-ylmethyl)-1,2,3,4-tetrahydroquinoline-6-sulfonic acid (4-ethylphenyl)isobutylamide] | < 100 nM | 100 to 1000 nM |  |
| CCc1ccc(N(CC(C)C)S(=O)(=O)c2ccc3c(c2)C(=O)CCN3CC2CCOCC2)cc1 [Compound 1, 4-oxo-1-(tetrahydropyran-4-ylmethyl)-1,2,3,4-tetrahydroquinoline-6-sulfonic acid (4-ethylphenyl)isobutylamide] | 100 to 1000 nM | 100 to 1000 nM |  |
| CCc1ccc(N(CC(C)C)S(=O)(=O)c2ccc3c(c2)C(=O)CCN3Cc2ccncc2)cc1 [Compound 4, 4-oxo-1-pyridin-4-ylmethyl-1,2,3,4-tetrahydroquinoline-6-sulfonic acid (4-ethylphenyl)isobutylamide] | < 100 nM | < 100 nM |  |
| CCc1ccc(N(CC(C)C)S(=O)(=O)c2ccc3c(c2)C(O)CCN3Cc2ccncc2)cc1 (centres unmarked) [Compound 10, 4-hydroxy-1-pyridin-4-ylmethyl-1,2,3,4-tetrahydroquinoline-6-sulfonic acid (4-ethylphenyl)isobutylamide] | < 100 nM | < 100 nM |  |
| CCc1ccc(N(CC(C)C)S(=O)(=O)c2ccc3c(c2)C(O)CCN3Cc2ccnc(F)c2)cc1 (centres unmarked) [Compound 11, 1-(2-fluoropyridin-4-ylmethyl)-4-hydroxy-1,2,3,4-tetrahydroquinoline-6-sulfonic acid (4-ethylphenyl)isobutylamide] | < 100 nM | < 100 nM |  |
| CCc1ccc(N(CC(C)C)S(=O)(=O)c2ccc3c(c2)C(O)CCN3CC2(C)CCOCC2)cc1 (centres unmarked) [Compound 14, 1-(4-methyltetrahydropyran-4-ylmethyl)-4-hydroxy-1,2,3,4-tetrahydroquinoline-6-sulfonic acid (4-ethylphenyl)isobutylamide] | < 100 nM | < 100 nM |  |
| CCc1ccc(N(CC(C)C)S(=O)(=O)c2ccc3c(c2)C(O)CCN3CC2(F)CCOCC2)cc1 (centres unmarked) [Compound 15, 1-(4-fluorotetrahydropyran-4-ylmethyl)-4-hydroxy-1,2,3,4-tetrahydroquinoline-6-sulfonic acid (4-ethylphenyl)isobutylamide] | 100 to 1000 nM | < 100 nM |  |
| CCc1ccc(N(CC(C)C)S(=O)(=O)c2ccc3c(c2)C(O)CCN3CC2(C)COC2)cc1 (centres unmarked) [Compound 19, 4-hydroxy-1-(3-methyloxetan-3-ylmethyl)-1,2,3,4-tetrahydroquinoline-6-sulfonic acid (4-ethylphenyl)isobutylamide] | 100 to 1000 nM | < 100 nM |  |

Now from value to molecule:

| IC50 [1] | IC50 ([2]; 96 h) | IC50 [2] | Compound |
| --- | --- | --- | --- |
| 100 to 1000 nM | < 100 nM |  | CCc1ccc(N(CC(C)C)S(=O)(=O)c2ccc3c(c2)C(O)CCN3CC2CC(O)C2)cc1 (mixture of isomers) [Compound 20, 4-hydroxy-1-(3-hydroxycyclobutylmethyl)-1,2,3,4-tetrahydroquinoline-6-sulfonic acid (4-ethylphenyl)isobutylamide] |
| < 100 nM |  | < 100 nM | CCc1ccc(N(CC(C)C)S(=O)(=O)c2ccc3c(c2)C(O)CCN3CC2CCOCC2)cc1 (single isomer, unassigned) [Enantiomer 1, 4-hydroxy-1-(tetrahydropyran-4-ylmethyl)-1,2,3,4-tetrahydroquinoline-6-sulfonic acid (4-ethylphenyl)isobutylamide] |
| 100 to 1000 nM | < 100 nM |  | CCc1ccc(N(CC(C)C)S(=O)(=O)c2ccc3c(c2)C(O)CCN3CC2CCOCC2)cc1 (single isomer, unassigned) [Enantiomer 2, 4-hydroxy-1-(tetrahydropyran-4-ylmethyl)-1,2,3,4-tetrahydroquinoline-6-sulfonic acid (4-ethylphenyl)isobutylamide] |
| < 100 nM | < 100 nM |  | CCc1ccc(N(CC(C)C)S(=O)(=O)c2ccc3c(c2)C(O)CCN3Cc2ccnnc2)cc1 (centres unmarked) [Compound 29, 4-hydroxy-1-pyridazin-4-ylmethyl-1,2,3,4-tetrahydroquinoline-6-sulfonic acid (4-ethylphenyl)isobutylamide] |
| < 100 nM | < 100 nM |  | CCc1ccc(N(CC(C)C)S(=O)(=O)c2ccc3c(c2)C(O)CCN3C[C@H]2[C@@H]3COC[C@@H]32)cc1 (stereo partly drawn) [Compound 37, 4-hydroxy-1-[(1S,5R,6S)-1-(3-oxabicyclo[3.1.0]hex-6-yl)methyl]-1,2,3,4-tetrahydroquinoline-6-sulfonic acid (4-ethylphenyl)isobutylamide] |
| 100 to 1000 nM | < 100 nM |  | CCc1ccc(N(CC(C)C)S(=O)(=O)c2ccc3c(c2)C(O)CCN3Cc2cn[nH]c2)cc1 (centres unmarked) [Compound 45, 4-hydroxy-1-(1H-pyrazol-4-ylmethyl)-1,2,3,4-tetrahydroquinoline-6-sulfonic acid (4-ethylphenyl)isobutylamide] |
| 100 to 1000 nM | 100 to 1000 nM |  | CCc1ccc(N(CC(C)C)S(=O)(=O)c2ccc3c(c2)C(O)CCN3CC2CN(C(=O)OC)C2)cc1 (centres unmarked) [Compound 46, methyl ester of 3-{6-[(4-ethylphenyl)isobutylsulfamoyl]-4-hydroxy-3,4-dihydro-2H-quinolin-1-ylmethyl}azetidine-1-carboxylic acid] |
| > 1000 nM | > 1000 nM |  | Cc1cc(C)c(N(CC(C)C)S(=O)(=O)c2ccc3c(c2)C(O)CCN3CC2CCOCC2)cn1 (centres unmarked) [Compound 66, 4-hydroxy-1-(tetrahydropyran-4-ylmethyl)-1,2,3,4-tetrahydroquinoline-6-sulfonic acid (4,6-dimethylpyridin-3-yl)isobutylamide] |
